# Laboratory results: paper PMC3833878, “In Silico Molecular Comparisons of C. elegans and Mammalian Pharmacology Identify Distinct Targets That Regulate Feeding” (PLoS Biology, 2013)
# Columns and labels:
# [1] = molecular target: T1, MGLUR5 (Homo sapiens, UniProt P41594); assay: Cell-based mGluR activity assay
# T1 construct: expressed in transfected cells
# Method: (§1) Tachykinin, ghrelin, and calcium-sensing receptor activity were measured using a cell-based Ca flux assay by Multispan, Inc. (Hayward, California). Cholescystokinin A and B receptors were assayed for effects on cAMP production, and nicotinic acid receptor activity was measured in a cell-based assay of forskolin-stimulated cAMP production by Multispan, Inc. […], PP2A phosphatase activity assays were performed by CEREP (Celle l'Evescault, France) using PP2A from human erythrocytes. Phospholipase C from Bacillus cereus was assayed by CEREP, Inc. using glycero-phosphatidyl ethanolamine as a substrate, monitoring diacyl glycerol production. Radioligand binding assays for PPAR-α, γ, δ and the androgen receptor were performed by CEREP, Inc. CARNA Biosciences (Kobe, Japan) performed in vitro kinase activity assays using recombinant catalytic domains and measured phosphorylation of an Src-derived peptide for Flt-3 and phosphatidyl inositol for PI3KCA. Radioligand binding assays for the oxytocin receptor, D4 dopamine receptor, cannabinoid CB2 receptor, and angiotensin type I and II receptors were performed as described previously, as were cell-based activity assays for mGluR 1a, 2, 4, 5, 6, and 8 [60]–[62].
# (§2) Table S2. Activity of 10 µM B16 on human metabotropic glutamate receptors.
# (§3) ^a Data are normalized to the maximum response of cells treated with 1 mM glutamate or 0.1 mM AP4 alone.
# (§4) ^b Percent difference in maximum activity of cells treated with glutamate or AP4 with B16 vehicle versus concurrent treatment with 10 µM B16.
# [2] = molecular target: T2, MGLUR1a (Homo sapiens, UniProt Q13255); assay: Cell-based mGluR activity assay; settings: 10 µM B16
# T2 construct: expressed in transfected cells
# Method: as §1, §2, §3, §4
# [3] = molecular target: T3, MGLUR4 (Homo sapiens, UniProt Q14833); assay: Cell-based mGluR activity assay; settings: 10 µM B16
# T3 construct: expressed in transfected cells
# Method: as §1, §2, §3, §4
# [4] = molecular target: T4, MGLUR6 (Homo sapiens, UniProt O15303); assay: Cell-based mGluR activity assay; settings: 10 µM B16
# T4 construct: expressed in transfected cells
# Method: as §1, §2, §3, §4
# [5] = molecular target: T5, MGLUR2 (Homo sapiens, UniProt Q14416); assay: Cell-based mGluR activity assay; settings: 10 µM B16
# T5 construct: expressed in transfected cells
# Method: as §1, §2, §3, §4
# [6] = system: wild-type C. elegans; assay: Pharyngeal pumping assay; type: in vivo; settings: for increase in pharyngeal pumping / exposure time after which the feeding elevating effect was notable: 10 µM; for increase in pharyngeal pumping: cultured 3 d from L1, long-term video (60 s) and short-term manual (10 s) measurements; for exposure time after which the feeding elevating effect was notable: naïve day 1 gravid adults; for effect on the pharyngeal pumping rate: 10 µM versus 0.1% DMSO; for EC50: Caenorhabditis elegans, read-out: EC50 of the dose-dependent increase in the pharyngeal pumping rate
# Method: (§5) Compounds at 1,000× stock concentrations (0.1–10 mM) in DMSO or an equal volume of DMSO were diluted in a suspension of E. coli OP-50 (100 µl of a 3× concentrated overnight culture in LB broth) and absorbed as a single drop onto 3.5 cm plates containing 2.5 ml of NGM agar forming a well-defined lawn of bacteria. For developmental exposures, 20–30 synchronized first larval stage C. elegans derived from alkaline hypochlorite treatment of gravid adults were applied to the preseeded plates and cultured until assay at mid-L4 stage (2 d, 20°C) or as day 1 gravid adults (3 d, 20°C). For naïve adult exposures, synchronized first larval stage animals were cultured on NGM-agar plates seeded with E. coli OP-50 for 3 d at 20°C, then transferred to assay plates, and pumping was assayed 1 to 16 h later. Comparisons between vehicle-treated and compound-treated animals were always performed between animals at the same developmental stage and same exposure time. Pharyngeal pumping was counted by live observation at 115–200× magnification using a stereo microscope and recorded at 10 s intervals using a manually controlled digital cell counter. Alternatively, C. elegans pumping was recorded for longer intervals (30–60 s) using bright-field time-lapse microscopy at 120× magnification with a 20 images per second acquisition rate. The resulting movies were analyzed manually at a playback rate of 10 images per second.
# (§6) Significance was determined by one-way ANOVA applying a Dunnett's posttest when comparing multiple treatments to a single control and a Bonferroni posttest when comparing the more than two treatments against one another. For pairwise nonrepeated measured comparisons, a student's t test was used. To express data as a percentage of control, the pumping rates of compound-treated animals were divided by the mean pumping rate of the DMSO-treated wild-type animals measured in the same experiment, unless indicated otherwise. Error bars on the control samples indicate the variation around that mean, which is utilized in all statistical calculations.
# [7] = molecular target: T6, mglur-8 (Rattus norvegicus, UniProt P70579); assay: Cell-based mGluR-8 activity assay, CHO cells stimulated with 1 µM L-AP4, concentration response
# T6 construct: expressed in transfected cells; host or cells: CHO cells
# Method: as §1
# (§7) Supplementary file pbio.1001712.s001.tif: Figure S1 Dose-response measurements that validate SEA predictions for GPCRs. […]
# [8] = system: C. elegans; parameters: method as in earlier work; settings: earlier phenotypic screen ref 11; cited from earlier work
# [9] = system: MGLUR8; assay: Cell-based mGluR activity assay; parameters: species or system human; settings: 10 µM B16
# Method: as §1
# Table S2. Activity of 10 µM B16 on human metabotropic glutamate receptors. […]
# [10] = system: mgl-2(tm355) mutant C. elegans; assay: Pharyngeal pumping assay, compound on high-feeding mutant; type: in vivo; settings: to C. elegans mgl-2 (F45H11.4), homolog of human mGluR-8
# Method: as §5, §6
# (§8) The pumping rates are expressed as a percentage of the mutant’s pumping rate on DMSO, the vehicle control. p-values were calculated relative to DMSO treatment of each mutant by one-way ANOVA using Dunnett’s multiple comparison test.
# [11] = molecular target: T7, flt-3 receptor (CD135) (Homo sapiens, UniProt P36888); assay: In vitro kinase activity assay, recombinant Flt-3 receptor catalytic domain, srctide phosphorylation (CARNA); type: biochemical
# T7 construct: Flt-3 receptor catalytic domain (amino acids 564–993); purchased CARNA Biosciences (Kobe, Japan)
# Method: as §1, with “Radioligand binding assays for the oxytocin receptor, D4 dopamine receptor, cannabinoid CB2 receptor, and angiotensin type I and II receptors were performed as described previously, as were cell-based activity assays for mGluR 1a, 2, 4, 5, 6, and 8 [60]–[62].” left out
# (§9) Supplementary file pbio.1001712.s002.tif: Figure S2 Dose-dependent inhibitory activity for compounds predicted by SEA to inhibit kinases. (A–B) Varying concentrations of J6 and L10 were incubated with full-length recombinant human PI3KCA and ATP (50 µM) for 5 h and the phosphorylation level of the substrate phosphatidylinositol was measured. […]
# [12] = system: ver-3(ok891) mutant C. elegans; assay: Pharyngeal pumping assay, compound on high-feeding mutant; type: in vivo; settings: to C. elegans ver-3 (F59F3.1), homolog of human Flt-3 receptor
# Method: as §5, §6, §8
# [13] = molecular target: oxytocin receptor (Homo sapiens, UniProt P30559); assay: Radioligand binding assay, 3H-oxytocin binding to the oxytocin receptor
# Method: as §1, §7
# [14] = system: gnrr-1(ok238) mutant C. elegans; assay: Pharyngeal pumping assay, compound on high-feeding mutant; type: in vivo; settings: to C. elegans gnrr-1 (F54D7.3), homolog of human Oxtr
# Method: as §5, §6, §8
# [15] = molecular target: androgen receptor (Homo sapiens, UniProt P10275); assay: Radioligand binding assay, 3H-Mibolerone binding to the androgen receptor (CEREP)
# Method: as §1, with “[60]-[62]. Supplementary file pbio.1001712.s003.tif: Figure S3 Dose-response relationships for compounds that bind nuclear hormone receptors. […]” for “[60]–[62].”
# [16] = molecular target: dopamine receptor D4 (Homo sapiens, UniProt P21917); assay: Radioligand binding assay, 3H-risperidone binding to the dopamine D4 receptor
# Method: as §1, §7
# [17] = molecular target: T8, PPAR-γ (Homo sapiens, UniProt P37231); assay: Radioligand binding assay, 3H-Rosiglitazone binding to PPAR-γ (CEREP)
# T8 construct: CEREP, Inc. (assay run by the contract laboratory)
# Method: as §1
# Supplementary file pbio.1001712.s003.tif: Figure S3 Dose-response relationships for compounds that bind nuclear hormone receptors. […]
# [18] = molecular target: T9, PI3K p110α (Homo sapiens, UniProt P42336); assay: In vitro kinase activity assay, recombinant PI3KCA, phosphatidylinositol phosphorylation (CARNA); type: biochemical; settings: marked with footnote d in Figure 2; 50 µM ATP, 5 h
# T9 construct: full-length recombinant human PI3KCA; purchased CARNA Biosciences (Kobe, Japan)
# Method: as §1, with “Radioligand binding assays for the oxytocin receptor, D4 dopamine receptor, cannabinoid CB2 receptor, and angiotensin type I and II receptors were performed as described previously, as were cell-based activity assays for mGluR 1a, 2, 4, 5, 6, and 8 [60]–[62].” left out
# as §9
# [19] = normalized to the maximum response of cells treated with 1 mM glutamate or 0.1 mM AP4 alone
# [20] = percent difference in maximum activity of cells treated with glutamate or AP4 with vehicle versus B16
# [21] = wild-type, serial 3-fold dilutions
# T1 sequence (P41594 21-1212): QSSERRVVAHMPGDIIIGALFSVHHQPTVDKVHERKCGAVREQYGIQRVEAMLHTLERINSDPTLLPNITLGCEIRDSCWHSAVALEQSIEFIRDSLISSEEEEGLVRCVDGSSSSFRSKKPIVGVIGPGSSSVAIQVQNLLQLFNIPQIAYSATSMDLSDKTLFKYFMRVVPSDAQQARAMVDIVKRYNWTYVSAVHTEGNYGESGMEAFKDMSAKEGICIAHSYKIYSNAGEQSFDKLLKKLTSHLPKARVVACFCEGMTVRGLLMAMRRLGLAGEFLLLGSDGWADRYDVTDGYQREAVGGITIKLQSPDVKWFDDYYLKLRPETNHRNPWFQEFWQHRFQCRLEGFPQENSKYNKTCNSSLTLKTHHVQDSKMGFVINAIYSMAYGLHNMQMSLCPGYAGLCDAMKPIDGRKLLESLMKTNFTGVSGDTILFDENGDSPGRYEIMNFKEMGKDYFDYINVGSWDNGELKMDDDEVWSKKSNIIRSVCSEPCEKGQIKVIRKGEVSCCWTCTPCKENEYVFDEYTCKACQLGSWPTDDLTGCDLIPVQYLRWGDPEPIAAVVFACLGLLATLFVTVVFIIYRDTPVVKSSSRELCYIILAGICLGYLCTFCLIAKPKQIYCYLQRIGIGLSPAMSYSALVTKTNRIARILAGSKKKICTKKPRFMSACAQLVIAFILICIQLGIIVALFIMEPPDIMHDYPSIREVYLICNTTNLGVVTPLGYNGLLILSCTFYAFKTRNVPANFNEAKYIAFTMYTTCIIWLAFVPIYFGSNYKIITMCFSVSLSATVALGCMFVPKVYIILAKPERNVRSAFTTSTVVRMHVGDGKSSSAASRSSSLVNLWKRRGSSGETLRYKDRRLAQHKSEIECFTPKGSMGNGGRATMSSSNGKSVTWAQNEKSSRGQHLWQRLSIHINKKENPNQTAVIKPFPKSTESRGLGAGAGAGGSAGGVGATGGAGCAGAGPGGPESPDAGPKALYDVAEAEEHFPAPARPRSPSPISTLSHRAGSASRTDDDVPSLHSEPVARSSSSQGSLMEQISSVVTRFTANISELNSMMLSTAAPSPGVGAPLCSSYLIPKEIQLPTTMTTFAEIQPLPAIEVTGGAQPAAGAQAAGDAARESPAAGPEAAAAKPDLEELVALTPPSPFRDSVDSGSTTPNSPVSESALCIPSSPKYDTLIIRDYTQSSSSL
# T5 sequence (Q14416 19-872): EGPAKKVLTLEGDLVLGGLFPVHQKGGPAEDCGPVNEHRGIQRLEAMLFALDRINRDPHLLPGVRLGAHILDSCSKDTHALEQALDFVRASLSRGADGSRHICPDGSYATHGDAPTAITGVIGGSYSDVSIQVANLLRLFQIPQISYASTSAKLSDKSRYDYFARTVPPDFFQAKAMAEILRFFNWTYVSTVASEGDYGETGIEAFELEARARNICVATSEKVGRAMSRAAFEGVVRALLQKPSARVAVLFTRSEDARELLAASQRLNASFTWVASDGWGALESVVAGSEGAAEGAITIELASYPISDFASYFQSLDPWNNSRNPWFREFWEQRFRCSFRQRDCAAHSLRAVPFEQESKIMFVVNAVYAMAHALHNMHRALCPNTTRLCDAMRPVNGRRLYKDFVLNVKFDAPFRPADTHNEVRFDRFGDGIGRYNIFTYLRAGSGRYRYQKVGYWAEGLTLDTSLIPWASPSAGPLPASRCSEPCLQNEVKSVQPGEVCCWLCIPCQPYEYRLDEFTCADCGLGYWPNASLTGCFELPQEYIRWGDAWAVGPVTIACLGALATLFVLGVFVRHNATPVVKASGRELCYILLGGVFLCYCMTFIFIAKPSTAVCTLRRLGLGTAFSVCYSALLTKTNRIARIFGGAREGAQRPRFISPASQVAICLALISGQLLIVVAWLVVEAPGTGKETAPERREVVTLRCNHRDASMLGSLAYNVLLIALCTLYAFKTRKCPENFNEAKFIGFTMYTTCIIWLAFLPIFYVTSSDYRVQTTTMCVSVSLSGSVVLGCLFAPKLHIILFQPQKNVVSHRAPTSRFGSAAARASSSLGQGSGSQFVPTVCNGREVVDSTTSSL
# T2 sequence (Q13255 19-1194): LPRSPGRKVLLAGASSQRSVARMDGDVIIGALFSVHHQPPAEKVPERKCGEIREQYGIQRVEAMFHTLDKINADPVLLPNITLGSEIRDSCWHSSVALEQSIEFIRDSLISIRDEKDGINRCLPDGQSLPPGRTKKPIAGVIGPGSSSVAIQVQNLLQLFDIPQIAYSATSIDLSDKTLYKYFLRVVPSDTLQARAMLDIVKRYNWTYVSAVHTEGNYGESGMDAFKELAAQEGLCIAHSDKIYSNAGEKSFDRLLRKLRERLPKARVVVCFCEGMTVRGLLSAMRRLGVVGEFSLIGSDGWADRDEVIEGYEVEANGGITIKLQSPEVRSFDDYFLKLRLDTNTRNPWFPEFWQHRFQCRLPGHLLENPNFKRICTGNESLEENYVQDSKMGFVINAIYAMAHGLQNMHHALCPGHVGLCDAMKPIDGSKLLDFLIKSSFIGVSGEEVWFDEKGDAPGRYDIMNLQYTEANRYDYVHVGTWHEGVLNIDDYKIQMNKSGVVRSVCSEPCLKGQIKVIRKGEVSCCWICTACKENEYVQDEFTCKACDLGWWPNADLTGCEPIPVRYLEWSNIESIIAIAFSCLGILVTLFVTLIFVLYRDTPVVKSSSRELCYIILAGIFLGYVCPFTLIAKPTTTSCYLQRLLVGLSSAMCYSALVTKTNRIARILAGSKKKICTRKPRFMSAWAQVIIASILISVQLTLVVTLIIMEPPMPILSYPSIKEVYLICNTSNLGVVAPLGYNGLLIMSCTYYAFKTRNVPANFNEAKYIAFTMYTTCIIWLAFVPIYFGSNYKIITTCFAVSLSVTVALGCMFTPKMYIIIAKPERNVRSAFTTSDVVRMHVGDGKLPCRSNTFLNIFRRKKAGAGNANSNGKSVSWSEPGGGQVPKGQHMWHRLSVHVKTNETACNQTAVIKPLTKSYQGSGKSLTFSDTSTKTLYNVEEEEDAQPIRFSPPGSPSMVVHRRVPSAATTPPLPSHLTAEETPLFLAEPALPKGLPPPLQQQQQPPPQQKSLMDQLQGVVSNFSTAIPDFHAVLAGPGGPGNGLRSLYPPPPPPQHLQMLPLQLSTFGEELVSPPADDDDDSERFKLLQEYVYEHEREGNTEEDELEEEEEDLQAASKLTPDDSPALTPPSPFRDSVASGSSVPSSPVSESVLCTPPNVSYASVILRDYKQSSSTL
# T9 sequence (P42336 whole entry): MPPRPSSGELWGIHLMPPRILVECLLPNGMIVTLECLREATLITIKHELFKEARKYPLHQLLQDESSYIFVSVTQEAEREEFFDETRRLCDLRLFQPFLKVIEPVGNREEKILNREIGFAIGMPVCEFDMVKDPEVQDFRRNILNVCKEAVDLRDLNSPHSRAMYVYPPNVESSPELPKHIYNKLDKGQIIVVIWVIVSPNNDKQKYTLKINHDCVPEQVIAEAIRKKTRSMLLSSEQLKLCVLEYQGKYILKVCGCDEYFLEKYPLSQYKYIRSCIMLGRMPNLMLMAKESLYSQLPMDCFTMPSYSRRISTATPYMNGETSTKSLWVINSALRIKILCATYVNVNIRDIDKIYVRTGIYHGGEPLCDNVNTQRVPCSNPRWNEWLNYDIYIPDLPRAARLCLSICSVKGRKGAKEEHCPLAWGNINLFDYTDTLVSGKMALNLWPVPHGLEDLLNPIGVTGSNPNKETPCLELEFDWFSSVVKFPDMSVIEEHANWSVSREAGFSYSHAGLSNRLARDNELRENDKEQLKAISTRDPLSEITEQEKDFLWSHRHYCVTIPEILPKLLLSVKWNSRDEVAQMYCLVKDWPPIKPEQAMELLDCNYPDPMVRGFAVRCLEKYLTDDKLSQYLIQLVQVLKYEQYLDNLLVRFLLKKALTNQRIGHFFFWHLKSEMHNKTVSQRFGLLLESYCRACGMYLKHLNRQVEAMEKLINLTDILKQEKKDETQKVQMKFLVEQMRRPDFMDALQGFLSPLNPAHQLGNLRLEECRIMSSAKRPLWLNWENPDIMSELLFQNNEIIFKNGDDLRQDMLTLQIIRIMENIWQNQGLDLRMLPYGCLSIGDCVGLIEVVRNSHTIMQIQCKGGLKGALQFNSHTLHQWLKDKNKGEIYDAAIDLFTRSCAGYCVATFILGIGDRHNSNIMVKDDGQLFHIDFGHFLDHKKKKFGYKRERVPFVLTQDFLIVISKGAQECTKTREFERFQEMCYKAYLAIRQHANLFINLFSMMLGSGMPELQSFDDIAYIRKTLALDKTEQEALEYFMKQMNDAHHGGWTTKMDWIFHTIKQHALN
# T9 sequence (P27986 whole entry partner): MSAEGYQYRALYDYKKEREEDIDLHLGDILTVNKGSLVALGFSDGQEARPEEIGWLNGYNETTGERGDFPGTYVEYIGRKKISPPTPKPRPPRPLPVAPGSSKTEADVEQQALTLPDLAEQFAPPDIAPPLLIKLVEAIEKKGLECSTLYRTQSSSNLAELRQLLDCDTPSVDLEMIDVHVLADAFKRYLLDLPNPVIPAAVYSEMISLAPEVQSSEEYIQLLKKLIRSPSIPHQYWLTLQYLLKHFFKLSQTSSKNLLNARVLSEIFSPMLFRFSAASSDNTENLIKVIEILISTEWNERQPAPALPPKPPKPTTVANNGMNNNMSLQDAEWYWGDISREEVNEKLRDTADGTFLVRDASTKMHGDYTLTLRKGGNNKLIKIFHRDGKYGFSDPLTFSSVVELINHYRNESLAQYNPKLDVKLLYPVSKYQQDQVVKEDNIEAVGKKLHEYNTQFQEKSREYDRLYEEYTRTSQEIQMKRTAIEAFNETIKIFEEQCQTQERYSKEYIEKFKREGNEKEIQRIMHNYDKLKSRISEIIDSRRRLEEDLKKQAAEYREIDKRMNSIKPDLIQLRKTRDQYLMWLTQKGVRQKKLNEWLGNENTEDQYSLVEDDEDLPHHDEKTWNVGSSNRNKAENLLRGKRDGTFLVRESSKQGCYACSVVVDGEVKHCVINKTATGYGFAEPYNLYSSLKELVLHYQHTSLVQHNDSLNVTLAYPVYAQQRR
smiles,measurement,setting,value
Cc1cc(C)c2c(N)c(C(=O)Nc3ccccn3)sc2n1 [B16],% agonism,"[1]; 10 µM B16, normalized to the maximum response of cells treated with 1 mM glutamate or 0.1 mM AP4 alone",-14%
same,inhibition at 10 µM,"[1]; 10 µM B16, percent difference in maximum activity of cells treated with glutamate or AP4 with vehicle versus B16",11%
same,Ki,[1]; Figure 2,> 30000 nM
same,% agonism,[2]; [19],-4%
same,inhibition at 10 µM,[2]; [20],24%
same,% agonism,[3]; [19],-8%
same,inhibition at 10 µM,[3]; [20],4%
same,% agonism,[4]; [19],13%
same,inhibition at 10 µM,[4]; [20],-17%
same,% agonism,[5]; [19],0%
same,inhibition at 10 µM,[5]; [20],12%
same,increase in pharyngeal pumping,[6],7%–12%
same,exposure time after which the feeding elevating effect was notable,[6],≤ 1 h
same,effect on the pharyngeal pumping rate,[6]; wild-type,increased
same,Ki,[7],9800 nM
same,Nile Red staining,[8],decreased
same,% agonism,[9]; [19],-3%
same,% inhibition,[9]; [20],49%
same,Pharmacological relationship,[10],antagonist
Cc1sc(NC(=O)c2ccccc2Br)c(C(N)=O)c1C [D20],increase in pharyngeal pumping,[6],7%–12%
same,exposure time after which the feeding elevating effect was notable,[6],≤ 1 h
same,EC50,[6]; [21],600 nM
same,effect on the pharyngeal pumping rate,[6]; wild-type,increased
same,Ki,"[11]; marked with footnote d in Figure 2, 100 µM ATP, 1 h",169 nM
same,Nile Red staining,[8],decreased
same,Pharmacological relationship,[12],antagonist
COc1ccc(N(CC(=O)NCc2ccco2)S(=O)(=O)c2ccccc2)cc1Cl [F15],increase in pharyngeal pumping,[6],7%–12%
same,exposure time after which the feeding elevating effect was notable,[6],≤ 1 h
same,EC50,[6]; [21],400 nM
same,effect on the pharyngeal pumping rate,[6]; wild-type,increased
same,Ki,[13],1800 nM
same,Nile Red staining,[8],decreased
same,Pharmacological relationship,[14],antagonist
CC12C(=O)N(c3ccc(Cl)c(Cl)c3)C(=O)C1C1C=CC2C1 (centres unmarked) [G6],Ki,[15],8.6 nM
O=C(CN1CCN(c2ccccc2)CC1)Nc1cc(C(F)(F)F)ccc1Cl [G7],Ki,[16],1900 nM
O=C(Nc1ccccc1C(=O)O)c1ccc(Br)c(S(=O)(=O)N2CCCCC2)c1 [I10],Ki,[17],1300 nM
Cc1nc(N2CCOCC2)c2oc3ccccc3c2n1 [J6],Ki,[18],4600 nM
CC1CCc2c(sc(NC(=O)c3cccs3)c2C(N)=O)C1 (centres unmarked) [K9],effect on feeding rate,[6]; [21],dose-dependent increase
same,activity on the predicted mammalian target Flt-3 kinase in vitro,[11]; Table S1 (not readable),fail to modulate
O=C1NC(=O)/C(=C\c2ccc(-c3cccc(Br)c3)o2)S1 [L10],Ki,[18],2900 nM
"CC[C@H](NC(=O)c1c(C)c(-c2ccccc2)nc2ccccc12)c1ccccc1 [SB222200, reference compound]",effect on feeding,"[6]; wild-type, 200 nM",increased feeding
